In the experiment the target is T1, IRAK-4 enzyme (Homo sapiens, UniProt Q9NWZ3).
T1 construct: purchased Millipore, USA
T1 sequence (Q9NWZ3 1-460): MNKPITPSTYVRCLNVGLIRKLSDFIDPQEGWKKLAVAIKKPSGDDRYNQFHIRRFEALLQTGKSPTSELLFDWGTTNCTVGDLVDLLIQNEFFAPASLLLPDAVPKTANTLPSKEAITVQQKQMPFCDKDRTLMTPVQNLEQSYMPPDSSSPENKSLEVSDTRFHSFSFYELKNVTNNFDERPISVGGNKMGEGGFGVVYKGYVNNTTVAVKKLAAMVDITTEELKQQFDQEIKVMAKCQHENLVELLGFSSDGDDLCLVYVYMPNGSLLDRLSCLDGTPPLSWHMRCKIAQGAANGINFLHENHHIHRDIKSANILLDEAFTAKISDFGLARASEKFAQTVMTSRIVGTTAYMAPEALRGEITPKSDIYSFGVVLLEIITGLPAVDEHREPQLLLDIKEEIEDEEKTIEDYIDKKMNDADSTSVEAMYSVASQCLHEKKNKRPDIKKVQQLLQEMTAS
The experiment is described as follows: IRAK-4 Biochemical Assay (TR-FRET). The note with it: recombinant IRAK-4 kinase, 20 μM ATP; for inhibition at 0.1 µM: 0.1 μM compound; for inhibition at 1 µM: 1 μM compound. The protocol: Compounds were tested for their potential to inhibit IRAK-4 enzyme in a TR-FRET assay using recombinant IRAK-4 kinase from Millipore, USA. The assay buffer was 50 mM Tris-HCl pH 7.5, 20 mM MgCl2, 1 mM EGTA, 2 mM DTT, 3 mM MnCl2 and 0.01% Tween 20.5 ng of IRAK-4 kinase was used for the assay. After pre-incubation of enzyme with test compound for 30 minutes at room temperature, a substrate mixture containing 100 nM Biotin Histone H3 (Millipore, USA) and 20 μM ATP (Sigma, USA) was added and the reaction was incubated for 30 min. Post incubation, the reaction was stopped by the addition of stop mix containing 40 mM EDTA, 1 nM of Europium-Anti-Phospho-Histone H3 (Ser10) antibody (Perkin Elmer, USA) and 20 nM SureLight Allophycocyanin-Streptavidin (Perkin Elmer, USA). The fluorescence emission at 615 nm and 665 nm were measured at an excitation of 340 nm and the percent inhibition was estimated from the ratio of the fluorescence intensities [(F665/F615)×10000].
The compounds of the present invention were screened in the above mentioned assay and the percent inhibition data is summarized in the Table 1.
On the technique in general: TR-FRET usually uses a lanthanide donor and a delayed reading to cut background.

Molecules are shown by their SMILES. Structures can show the parent of a compound that is named as a salt.

What is called inhibition is the change of the read-out against control, counted positive when it falls.

With `CCOCC1CCN(c2cc3c(cc2NC(=O)c2coc(-c4ccnc(N)c4)n2)c(C)nn3C)CC1` [Example 35, 2-(2-aminopyridin-4-yl)-N-(6-(4-(ethoxymethyl)piperidin-1-yl)-1,3-dimethyl-1H-indazol-5-yl)oxazole-4-carboxamide], the inhibition at 0.1 µM turned out to be 95% and the inhibition at 1 µM came out at 96%.
As to `Cc1nn(C)c2cc(N3CCC(COCC4CC4)CC3)c(NC(=O)c3coc(-c4ccnc(N)c4)n3)cc12` [Example 36, 2-(2-aminopyridin-4-yl)-N-(6-(4-((cyclopropylmethoxy)methyl)piperidin-1-yl)-1,3-dimethyl-1H-indazol-5-yl)oxazole-4-carboxamide], the inhibition at 0.1 µM came to 81% and the inhibition at 1 µM turned out to be 85%.
Take `Cc1nn(C)c2cc(N3CCC(CO)CC3)c(NC(=O)c3cccc(-c4ccc(N)nc4)n3)cc12` [Example 37, 6′-amino-N-(6-(4-(hydroxymethyl)piperidin-1-yl)-1,3-dimethyl-1H-indazol-5-yl)-[2,3′-bipyridine]-6-carboxamide hydrochloride]: the inhibition at 0.1 µM is 14% and the inhibition at 1 µM stood at 75%.
In the case of `Cc1nn(C)c2cc(N3CCC(CO)CC3)c(NC(=O)c3coc(-c4cc(N)ncc4Cl)n3)cc12` [Example 38, 2-(2-amino-5-chloropyridin-4-yl)-N-(6-(4-(hydroxymethyl)piperidin-1-yl)-1,3-dimethyl-1H-indazol-5-yl)oxazole-4-carboxamide hydrochloride], the inhibition at 0.1 µM worked out at 50% and the inhibition at 1 µM is 90%.
The corresponding values for `Cc1nn(C)c2cc3c(cc12)NC(=O)c1coc(n1)-c1ccnc(c1)NCCCOCC1CCN3CC1` [Example 39, (Z)-51,53-dimethyl-51H-8-oxa-4,12-diaza-2(2,4)-oxazola-5(5,6)-indazola-1(4,2)-pyridina-6(1,4)-piperidinacyclododecaphan-3-one] are 4% and 72%.
For `Cn1cc2cc(NC(=O)c3ccc(N4CCC(O)C4)cn3)c(N3CCCCC3)nc2n1` (centres unmarked) [Example 40, 5-(3-hydroxypyrrolidin-1-yl)-N-(2-methyl-6-(piperidin-1-yl)-2H-pyrazolo[3,4-b]pyridin-5-yl)picolinamide], in that order: 0% and 57%.
`Cn1cc2cc(NC(=O)c3coc(-c4cccc(N)n4)n3)c(N3CCCCC3)cc2n1` [Example 41, 2-(6-aminopyridin-2-yl)-N-(2-methyl-6-(piperidin-1-yl)-2H-indazol-5-yl)oxazole-4-carboxamide]: the inhibition at 0.1 µM was 96% and the inhibition at 1 µM stood at 97%.
The corresponding values for `Cn1cc2cc(NC(=O)c3coc(-c4cccc(N)n4)n3)c(N3CCOCC3)cc2n1` [Example 42, 2-(6-aminopyridin-2-yl)-N-(2-methyl-6-morpholino-2H-indazol-5-yl)oxazole-4-carboxamide] are 86% and 97%.
For the compound `Cn1cc2cc(NC(=O)c3cccc(-c4ccnc(N)c4)n3)c(N3CCCCC3)cc2n1` [Example 43, 2′-amino-N-(2-methyl-6-(piperidin-1-yl)-2H-indazol-5-yl)-[2,4′-bipyridine]-6-carboxamide hydrochloride], the inhibition at 0.1 µM was 97% and the inhibition at 1 µM is 96%.
The corresponding values for `Cn1cc2cc(NC(=O)c3cccc(-c4ccc(N)nc4)n3)c(N3CCCCC3)cc2n1` [Example 44, 6′-amino-N-(2-methyl-6-(piperidin-1-yl)-2H-indazol-5-yl)-[2,3′-bipyridine]-6-carboxamide] are 98% and 97%.
In the case of `COc1ccc(C(=O)Nc2cc3cn(C)nc3cc2N2CCCCC2)nc1-c1ccnc(N)c1` [Example 45, 2′-amino-3-methoxy-N-(2-methyl-6-(piperidin-1-yl)-2H-indazol-5-yl)-[2,4′-bipyridine]-6-carboxamide], the inhibition at 0.1 µM is 9% and the inhibition at 1 µM worked out at 27%.
For `Cn1cc2cc(NC(=O)c3cccc(-c4cccc(N)n4)n3)c(N3CCCCC3)cc2n1` [Example 46, 6′-amino-N-(2-methyl-6-(piperidin-1-yl)-2H-indazol-5-yl)-[2,2′-bipyridine]-6-carboxamide], the inhibition at 0.1 µM amounted to 93% and the inhibition at 1 µM turned out to be 96%.
For `Cn1cc2cc(NC(=O)c3cccc(-c4ccnc(N)n4)n3)c(C3CC3)cc2n1` [Example 47, 6-(2-aminopyrimidin-4-yl)-N-(6-cyclopropyl-2-methyl-2H-indazol-5-yl)picolinamide], in that order: 77% and 95%.
On to `Cn1cc2cc(NC(=O)c3cccc(-c4ccc(N)nc4)n3)c(C3CC3)cc2n1` [Example 48, 6′-amino-N-(6-cyclopropyl-2-methyl-2H-indazol-5-yl)-[2,3′-bipyridine]-6-carboxamide], for which the inhibition at 0.1 µM came to 96% and the inhibition at 1 µM is 98%.
The corresponding values for `Cn1cc2cc(NC(=O)c3cccc(-c4ccc(N)nc4)n3)c(N3CCOCC3)cc2n1` [Example 49, 6′-amino-N-(2-methyl-6-morpholino-2H-indazol-5-yl)-[2,3′-bipyridine]-6-carboxamide] are 96% and 97%.
For the compound `Cn1cc2cc(NC(=O)c3cccc(-c4ccnc(N)c4)n3)c(N3CCOCC3)cc2n1` [Example 50, 2′-amino-N-(2-methyl-6-morpholino-2H-indazol-5-yl)-[2,4′-bipyridine]-6-carboxamide hydrochloride], the inhibition at 0.1 µM was found to be 86% and the inhibition at 1 µM was found to be 95%.
The corresponding values for `Cn1cc2cc(NC(=O)c3cccc(-c4cccc(N)n4)n3)c(C3CC3)cc2n1` [Example 51, 6′-amino-N-(6-cyclopropyl-2-methyl-2H-indazol-5-yl)[2,2′-bipyridine]-6-carboxamide hydrochloride] are 57% and 92%.
For `Cn1cc2cc(NC(=O)c3cccc(-c4ccnc(N)c4)n3)c(C3CC3)cc2n1` [Example 52, 2′-amino-N-(6-cyclopropyl-2-methyl-2H-indazol-5-yl)-[2,4′-bipyridine]-6-carboxamide], in that order: 93% and 96%.
On to `Cn1cc2cc(NC(=O)c3cc(-c4ccc(N)nc4)ccn3)c(N3CCCCC3)cc2n1` [Example 53, 6-amino-N-(2-methyl-6-(piperidin-1-yl)-2H-indazol-5-yl)-[3,4′-bipyridine]-2′-carboxamide hydrochloride], for which the inhibition at 0.1 µM is 0% and the inhibition at 1 µM stood at 13%.
For `O=C(Nc1cc2cn(C3CCNCC3)nc2cc1C1CC1)c1cccc(N2CCC(O)C2)n1` (centres unmarked) [Example 54, N-(6-cyclopropyl-2-(piperidin-4-yl)-2H-indazol-5-yl)-6-(3-hydroxypyrrolidin-1-yl)picolinamide hydrochloride], in that order: 95% and 96%.
In the case of `O=C(Nc1cc2cn(CCN3CCOCC3)nc2cc1C1CC1)c1cccc(N2CCC(O)C2)n1` (centres unmarked) [Example 55, N-(6-cyclopropyl-2-(2-morpholinoethyl)-2H-indazol-5-yl)-6-(3-hydroxypyrrolidin-1-yl)picolinamide], the inhibition at 0.1 µM was found to be 92% and the inhibition at 1 µM came to 95%.
For `CN1CCC(n2cc3cc(NC(=O)c4cccc(N5CCC(O)C5)n4)c(C4CC4)cc3n2)CC1` (centres unmarked) [Example 56, N-(6-cyclopropyl-2-(1-methylpiperidin-4-yl)-2H-indazol-5-yl)-6-(3-hydroxypyrrolidin-1-yl)picolinamide hydrochloride], in that order: 20% and 71%.
As for `Cn1cc2cc(NC(=O)c3cccc(N4CC[C@@H](O)C4)n3)c(N3CCCCC3)cc2n1` [Example 57, (R)-6-(3-hydroxypyrrolidin-1-yl)-N-(2-methyl-6-(piperidin-1-yl)-2H-indazol-5-yl)picolinamide], the inhibition at 0.1 µM amounted to 96% and the inhibition at 1 µM came out at 101%.
`Cn1cc2cc(NC(=O)c3cccc(N4CC[C@@H](OC(=O)CN)C4)n3)c(N3CCCCC3)cc2n1` [Example 58, (R)-1-(6-((2-methyl-6-(piperidin-1-yl)-2H-indazol-5-yl)carbamoyl)pyridin-2-yl)pyrrolidin-3-yl glycinate 2,2,2-trifluoroacetate]: the inhibition at 0.1 µM worked out at 91% and the inhibition at 1 µM was 96%.
For the compound `Cc1ccc(C(=O)Nc2cc3cn(C)nc3cc2N2CCCCC2)nc1N1CCC(O)C1` (centres unmarked) [Example 59, 6-(3-hydroxypyrrolidin-1-yl)-5-methyl-N-(2-methyl-6-(piperidin-1-yl)-2H-indazol-5-yl)picolinamide], the inhibition at 0.1 µM was 74% and the inhibition at 1 µM was 91%.

The values above are taken from US20180201609A1 (AURIGENE DISCOVERY TECHNOLOGIES LIMITED, priority 2015, published 2018).
